Tests used:
[1] = molecular target: T1, T-synthase (UDP-Gal: glycoprotein-N-acetylgalactosamine β-1,3-galactosyltransferase) from Biomphalaria glabrata (Biomphalaria glabrata, UniProt A0A2C9JXL4); test: galactosyl transfer to pNP-α-GalNAc, HPLC; assay type: biochemical; conditions: 5 nmol added to 20 μL assay; 200 μM UDP-Gal, 1 mM pNP-α-GalNAc, 20 mM MnCl2, 2 mM ATP, 50 mM MES pH 6.5, 37 °C, 2 h; bead-bound enzyme or lysate not stated for this test
T1 construct: full-length 388 aa type II transmembrane protein, C-terminal His-tag, codon-optimised synthetic gene, expressed in Sf9 cells; lysate or captured on anti-His magnetic beads
T1 sequence (A0A2C9JXL4 1-388): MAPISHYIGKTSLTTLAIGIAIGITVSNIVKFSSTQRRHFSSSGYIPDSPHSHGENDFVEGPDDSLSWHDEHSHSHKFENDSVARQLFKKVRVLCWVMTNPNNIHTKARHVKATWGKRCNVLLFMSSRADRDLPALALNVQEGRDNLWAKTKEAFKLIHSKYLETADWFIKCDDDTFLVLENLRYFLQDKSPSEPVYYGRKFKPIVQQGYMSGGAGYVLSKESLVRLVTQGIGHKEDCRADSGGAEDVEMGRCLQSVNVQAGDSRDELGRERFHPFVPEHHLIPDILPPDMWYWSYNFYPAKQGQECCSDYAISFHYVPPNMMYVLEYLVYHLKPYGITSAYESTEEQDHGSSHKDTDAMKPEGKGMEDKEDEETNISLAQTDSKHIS

[2] = molecular target: T1, T-synthase (UDP-Gal: glycoprotein-N-acetylgalactosamine β-1,3-galactosyltransferase) from Biomphalaria glabrata; test: galactosyl transfer, HPLC; product linkage by NMR; assay type: cell-based; conditions: acceptor, 1 mM; 200 μM UDP-Gal, 20 mM MnCl2, 2 mM ATP, 50 mM MES pH 6.5, 37 °C, 2 h; Sf9 lysate, control lysate inactive

SMILES: O=c1ccn([C@@H]2O[C@H](COP(=O)(O)O)[C@@H](O)[C@H]2O)c(=O)[nH]1 [UMP]
- % inhibition at 5 nmol [1]: ~ 50%

SMILES: O=c1ccn([C@@H]2O[C@H](COP(=O)(O)OP(=O)(O)OP(=O)(O)O)[C@@H](O)[C@H]2O)c(=O)[nH]1 [UTP]
- % inhibition at 5 nmol [1]: ~ 50%

SMILES: CC(=O)N[C@H]1[C@@H](Oc2ccc([N+](=O)[O-])cc2)O[C@H](CO)[C@H](O)[C@@H]1O [pNP-α-GalNAc]
- galactosyl transfer, HPLC; product linkage by NMR [2]: the identity of the product pNP-α-GalNAc-β-1,3-Gal was clearly confirmed

— PMC9865085, “Expression and Characterisation of the First Snail-Derived UDP-Gal: Glycoprotein-N-acetylgalactosamine β-1,3-Galactosyltransferase (T-Synthase) from Biomphalaria glabrata” (Molecules, 2023)
